Assay results published in patent US5523223A, “Ketoester reductase for conversion of keto acid esters to optically active hydroxy acid esters” (priority 1992, dated 1996).
Several values for one entry are separate records, joined by “and”; a condition that tells them apart may be missing. Equal entries are not always repeated. Where two headings read alike, the source gives them in different places.

Tests used:
[1] = system: KERed from C. parapsilosis; test: Inhibition study of the KERed (influence of metal cations and reagents); format: biochemical, Candida parapsilosis
From the text: (§1) For the following investigation, partially purified enzyme (after Q-sepharose chromatography, 67-times enrichment) was used. […]
5-oxohexanoic acid ethyl ester
TEA-NaOH-buffer, 0.1 M; pH 7.9
The influence of various metal cations and reagents upon the enzymatic activity was investigated in tests in which the test preparation described under example 3.B was used.

[2] = system: KERed from Candida parapsilosis; test: Kinetic characterization of the KERed; format: biochemical; conditions: partially purified enzyme; for Vmax: referred to 2-butanone
[3] = system: KERed from C. parapsilosis; test: Substrate spectrum of the KERed; format: biochemical, Candida parapsilosis; conditions: for Rel. Activity: substrate 8 mM, activity with 5-oxo-hexanoic acid ethyl ester = 100%, NADH 0.2 mM, pH 7.9; for Acceptance as substrate by the KERed (in words): reduction with NADH
Experimental: as §1
5-oxohexanoic acid ethyl ester […]
Corresponding to example 3.B, instead of 5-oxohexanoic acid ethyl ester a series of aromatic and aliphatic ketoesters, ketoacids, ketones, diketones and aldehydes were investigated as to whether they could be reduced enzymatically. For this the compounds were added always in 8 mM final concentration. […] The activity with 5-oxo-hexanoic acid ethyl ester was arbitrarily selected as 100%.

[4] = compound 0.1 mM, 35 mM 5-oxohexanoic acid ethyl ester, 0.2 mM NADH, pH 7.9
[5] = compound 1.0 mM, 35 mM 5-oxohexanoic acid ethyl ester, 0.2 mM NADH, pH 7.9
[6] = summary statements of the inhibition study

[Co+2] [Co^2+]
Residual Activity [1, 4]: 38% | Residual Activity [1, 5]: 12% | Influence on KERed activity (in words) [1, 6]: Rapid deactivation

[Cu+2] [Cu^2+]
Residual Activity [1, 4]: 0% | Residual Activity [1, 5]: 0% | Influence on KERed activity (in words) [1, 6]: Rapid deactivation

CCOC(=O)OC(=O)OCC [Diethyl Pyrocarbonate]
Residual Activity [1, 4]: 100% | Residual Activity [1, 5]: 100%

O=C(O)CN(CCN(CC(=O)O)CC(=O)O)CC(=O)O [EDTA]
Influence on KERed activity (in words) [1]: practically not inhibited | Residual Activity [1]: 100% and 80%

CCOC(=O)CC(=O)CC [Ethyl 3-oxopentanoate]
Km [2]: 6900 µM | Vmax [2]: 17%

CCOC(=O)CC(=O)CCl [Ethyl 4-chlor-3-oxo-butanoate]
Km [2]: 3560 µM | Vmax [2]: 10%

CCOC(=O)CC(=O)C(F)(F)F [Ethyl 4-trifluor-3-oxo-butanoate]
Km [2]: 2000 µM | Vmax [2]: 11%

[Fe+3] [Fe^3+]
Residual Activity [1, 4]: 100%

N[C@@H](CCC(=O)N[C@@H](CS)C(=O)NCC(=O)O)C(=O)O [Glutathione (reduced), Glutathione]
Residual Activity [1, 4]: 100% | Residual Activity [1, 5]: 100%

[Hg+2] [Hg^2+]
Residual Activity [1, 4]: 0% | Residual Activity [1, 5]: 0% | Influence on KERed activity (in words) [1, 6]: Rapid deactivation

NC(=O)CI [Iodoacetamide]
Residual Activity [1, 4]: 77% | Residual Activity [1, 5]: 17.5% | Influence on KERed activity (in words) [1, 6]: Strong inhibition

CO [Methanol]
Vmax [2]: No Reaction

NC(=O)C1=CN([C@@H]2O[C@H](COP(=O)(O)OP(=O)(O)OC[C@H]3O[C@@H](n4cnc5c(N)ncnc54)[C@H](O)[C@@H]3O)[C@@H](O)[C@H]2O)C=CC1 [NADH]
Km [2]: 38 µM

NC(=O)C1=CN([C@@H]2O[C@H](COP(=O)(O)OP(=O)(O)OC[C@H]3O[C@@H](n4cnc5c(N)ncnc54)[C@H](OP(=O)(O)O)[C@@H]3O)[C@@H](O)[C@H]2O)C=CC1 [NADPH]
Vmax [2]: No Reaction

COC(OC)C(C)=O [Pyruvaldehyde-Dimethyl-acetal]
Km [2]: 189 µM | Vmax [2]: 24%

CC(=O)CC(=O)OC(C)(C)C [Tert.-Butyl 3-oxo-butanoate]
Km [2]: 356 µM | Vmax [2]: 71%

CCOC(=O)CC(C)=O [drawing 3]
Rel. Activity [3]: 76%

CCOC(=O)CC(C)=O [drawing 4]
Rel. Activity [3]: 61%

CC(=O)CC(=O)OC(C)(C)C [drawing 5]
Rel. Activity [3]: 137%

CC(=O)CCC(=O)O [drawing 6]
Rel. Activity [3]: 0%

CCOC(=O)CCC(C)=O [drawing 7]
Rel. Activity [3]: 76%

CCOC(=O)CC(=O)C(F)(F)F [drawing 10]
Rel. Activity [3]: 21%

CCOC(=O)CC(=O)CCl [drawing 11]
Rel. Activity [3]: 92%

CCOC(=O)CC(=O)CC [drawing 13]
Rel. Activity [3]: 32%

CCCC(=O)CC(=O)OCC [drawing 14]
Rel. Activity [3]: 51%

CC(=O)CC(C)=O [drawing 18]
Rel. Activity [3]: 15%

CCC(=O)CC(C)=O [drawing 19]
Rel. Activity [3]: 46%

CC(=O)c1ccccc1 [drawing 26]
Rel. Activity [3]: 34%

CC(=O)c1cccc(Cl)c1 [drawing 28]
Rel. Activity [3]: 35%

CC(=O)c1ccc(Br)cc1 [drawing 29]
Rel. Activity [3]: 40%

CC(=O)c1ccc(F)cc1 [drawing 30]
Rel. Activity [3]: 40%

CCC(=O)c1ccccc1 [drawing 31]
Rel. Activity [3]: 0%

CC(=O)C(Cl)Cl [drawing 33]
Rel. Activity [3]: 60%

CC(=O)C(C)Cl (centres unmarked) [drawing 34]
Rel. Activity [3]: 105%

COCC(C)=O [drawing 35]
Rel. Activity [3]: 53%

CCC(=O)C(C)C [drawing 37]
Rel. Activity [3]: 51%

CCC(C)=O [drawing 38]
Rel. Activity [3]: 48%

CCCC(C)=O [drawing 39]
Rel. Activity [3]: 40%

CCCCCCC(C)=O [drawing 40]
Rel. Activity [3]: 54%

CCCCCC(=O)CC [drawing 41]
Rel. Activity [3]: 33%

CCCC(=O)CC [drawing 43]
Rel. Activity [3]: 4%

COC(OC)C(C)=O [drawing 44]
Rel. Activity [3]: 118%

CC=O [drawing 46]
Rel. Activity [3]: 150%

CCC=O [drawing 47]
Rel. Activity [3]: 127%

CC(C)C=O [drawing 48]
Rel. Activity [3]: 178%

CC(C)C=O [isobutyraldehyde]
Acceptance as substrate by the KERed (in words) [3]: acceptable as substrates

COCC(C)=O [methoxy-2-propanone]
Acceptance as substrate by the KERed (in words) [3]: acceptable as substrates

CCC=O [propionaldehyde]
Acceptance as substrate by the KERed (in words) [3]: acceptable as substrates

CCC(=O)c1ccccc1 [propiophenone]
Acceptance as substrate by the KERed (in words) [3]: acceptable as substrates
